Experimental data as given in ChEMBL document CHEMBL5036330, “Discovery of 8,9-seco-ent-Kaurane Diterpenoids as Potential Leads for the Treatment of Triple-Negative Breast Cancer” (J Med Chem, 2021).
The source made the active and inactive calls. The calls are words filed in the database; no cut-off is given here.

Columns and labels:
MDA-MB-231 [1] = assay: Induction of apoptosis in human MDA-MB-231 cells assessed as late apoptotic cells at 5 uM measured after 24 hrs by Annexin V/Propidium iodide stain based Flow cytometry (reference value: 2.78%); format: functional
[2] = Toxicity in NOD/SCID mouse assessed as cytotoxicity in spleen at 10 mg/kg, ip treated for 33 days by H&E staining analysis; format: organism-based; details: in vivo, 792 h, time 33 day
MDA-MB-231 [3] = assay: Cytotoxicity against Akt1-silenced human MBA-MB-231 cells assessed as cell viability measured after 24 hrs; format: functional, cell-based
MDA-MB-468 [4] = assay: Anticancer activity in human MDA-MB-468 cells xenografted mouse model assessed as reduction in tumor weight at 10 mg/kg, ip treated for 33 days; format: functional; details: MDA-MB-468, ip, 792 h, time 33 day
MDA-MB-231 [5] = assay: Induction of cell cycle arrest in human MDA-MB-231 cells assessed as accumulation of cells at G2 phase at 1 uM measured after 24 hrs by flow cytometry (reference value: 20.2%); format: functional
MDA-MB-231 [6] = assay: Induction of apoptosis in human MDA-MB-231 cells assessed as early apoptotic cells at 2 uM measured after 24 hrs by Annexin V/Propidium iodide stain based Flow cytometry (reference value: 3.34%); format: functional
MDA-MB-231 [7] = assay: Inhibition of PI3K phosphorylation in human MDA-MB-231 cells measured at 1 to 5 uM after 24 hrs by Western blot analysis; format: cell-based; details: dose 1-5 µM
MDA-MB-468 [8] = assay: Effect on Akt expression in human MDA-MB-468 cells measured at 1 to 5 uM after 24 hrs by Western blot analysis; format: functional, cell-based; details: dose 1-5 µM
MDA-MB-468 [9] = assay: Inhibition of PI3K phosphorylation in human MDA-MB-468 cells measured at 1 to 5 uM after 24 hrs by Western blot analysis; format: cell-based; details: dose 1-5 µM
MDA-MB-468 [10] = assay: Antitumor activity against human MDA-MB-468 cells xenografted in NOD/SCID mouse assessed as increase in TUNEL expression in tumor tissue at 5 to 10 mg/kg, ip treated for 33 days by immunohistochemical analysis; format: functional, organism-based; details: dose 5-10 mg/kg, time 33.0 day
MDA-MB-468 [11] = assay: Induction of apoptosis in human MDA-MB-468 cells assessed as increase in cleaved caspase 3 at 1 to 5 uM measured after 24 hrs by Western blot analysis; format: functional, cell-based; details: dose 1-5 µM
MDA-MB-468 [12] = assay: Induction of cell cycle arrest in human MDA-MB-468 cells assessed as accumulation of cells at G2 phase at 1 uM measured after 24 hrs by flow cytometry (reference value: 26.5%); format: functional
[13] = Selectivity index, ratio of IC50 for HEK293 cells to IC50 for human MBA-MB-231 cells; format: toxicity; details: HEK293 cells versus MBA-MB-231 cells, read-out: Selectivity Index
MCF-10A = assay: Cytotoxicity against human MCF-10A cells assessed as reduction in cell viability incubated for 96 hrs by MTT method; format: cell-based
[14] = Toxicity in NOD/SCID mouse assessed as cytotoxicity in heart at 10 mg/kg, ip treated for 33 days by H&E staining analysis; format: organism-based; details: in vivo, 792 h, time 33 day
MDA-MB-468 [15] = assay: Induction of apoptosis in human MDA-MB-468 cells assessed as late apoptotic cells at 2 uM measured after 24 hrs by Annexin V/Propidium iodide stain based Flow cytometry (reference value: 3.98%); format: functional
MDA-MB-231 [16] = assay: Induction of cell cycle arrest in human MDA-MB-231 cells assessed as accumulation of cells at S phase at 2 uM measured after 24 hrs by flow cytometry (reference value: 32.2%); format: functional
MDA-MB-231 [17] = assay: Induction of autophagy in human MDA-MB-231 cells assessed as increase in LC3-II expression at 1 to 5 uM incubated for 24 hrs by Western blot analysis; format: functional, cell-based; details: dose 1-5 µM
MDA-MB-231 [18] = assay: Induction of mitochondrial depolarization in human MDA-MB-231 cells assessed as monomers at 2 uM in dark by JC10 staining based fluorescence microscopy (reference value: 5.6%); format: functional
Homo sapiens = species on record: Homo sapiens; assay: Inhibition of PI3K (unknown origin) by ADP-Glo assay
MDA-MB-468 [19] = assay: Anticancer activity in human MDA-MB-468 cells xenografted mouse model assessed as reduction in tumor volume at 10 mg/kg, ip treated for 33 days; format: functional; details: MDA-MB-468, ip, 792 h, time 33 day
MDA-MB-231 [20] = assay: Induction of apoptosis in human MDA-MB-231 cells assessed as decrease in Bcl2/Bax ratio at 1 to 5 uM measured after 24 hrs by Western blot analysis; format: functional, cell-based; details: dose 1-5 µM
HEK293 = assay: Cytotoxicity against HEK-293 cells assessed as reduction in cell viability incubated for 96 hrs by MTT method; format: cell-based; details: Homo sapiens, HEK293, 96 h
MDA-MB-468 [21] = assay: Induction of cell cycle arrest in human MDA-MB-468 cells assessed as accumulation of cells at G2 phase at 2 uM measured after 24 hrs by flow cytometry (reference value: 26.5%); format: functional
MDA-MB-231 [22] = assay: Induction of mitochondrial depolarization in human MDA-MB-231 cells assessed as aggregates at 5 uM in dark by JC10 staining based fluorescence microscopy (reference value: 94.4%); format: functional
MDA-MB-468 [23] = assay: Induction of cell cycle arrest in human MDA-MB-468 cells assessed as accumulation of cells at G2 phase at 5 uM measured after 24 hrs by flow cytometry (reference value: 26.5%); format: functional
MDA-MB-468 [24] = assay: Induction of apoptosis in human MDA-MB-468 cells assessed as late apoptotic cells at 5 uM measured after 24 hrs by Annexin V/Propidium iodide stain based Flow cytometry (reference value: 3.98%); format: functional
MDA-MB-231 [25] = assay: Antiinvasive activity against in human MDA-MB-231 cells assessed as reduction in beta-catenin expression measured upto 72 hrs by Western blot analysis; format: functional, cell-based; details: dose 0.1-0.2 µM, time hrs <=72
MDA-MB-468 [26] = assay: Effect on PI3K expression in human MDA-MB-468 cells measured at 1 to 5 uM after 24 hrs by Western blot analysis; format: functional, cell-based; details: dose 1-5 µM
MDA-MB-231 [27] = assay: Antiinvasive activity against in human MDA-MB-231 cells measured at 0.2 uM upto 72 hrs by transwell invasion assay relative to control; format: functional; details: MDA-MB-231, 72 h, time hrs <=72
MDA-MB-468 [28] = assay: Antitumor activity against human MDA-MB-468 cells xenografted in NOD/SCID mouse assessed as increase in LC3B expression in tumor tissue at 5 to 10 mg/kg, ip treated for 33 days by immunohistochemical analysis; format: functional, organism-based; details: dose 5-10 mg/kg, time 33.0 day
MDA-MB-468 [29] = assay: Induction of apoptosis in human MDA-MB-468 cells assessed as early apoptotic cells at 1 uM measured after 24 hrs by Annexin V/Propidium iodide stain based Flow cytometry (reference value: 7.98%); format: functional
MDA-MB-468 [30] = assay: Anticancer activity in human MDA-MB-468 cells xenografted mouse model assessed as tumor growth inhibition at 5 mg/kg, ip treated for 33 days relative to control; format: functional, organism-based; details: time 33.0 day
MDA-MB-231 [31] = assay: Induction of autophagy in human MDA-MB-231 cells assessed as increase in ATG5 expression at 1 to 5 uM incubated for 24 hrs by Western blot analysis; format: functional, cell-based; details: dose 1-5 µM
MDA-MB-468 [32] = assay: Induction of cell cycle arrest in human MDA-MB-468 cells assessed as accumulation of cells at G1 phase at 2 uM measured after 24 hrs by flow cytometry (reference value: 26.6%); format: functional
MDA-MB-231 [33] = assay: Cytotoxicity against human MDA-MB-231 cells assessed as reduction in cell viability incubated for 96 hrs by MTT method; format: functional, cell-based; details: MDA-MB-231, 96 h

Q: For `C=C1C(=O)C2=C[C@H]1CCC(=O)[C@]1(C)[C@H](O)CCC(C)(C)[C@H]1C[C@H]2O`, which Activity (MDA-MB-231 [1]) is on record?
A: Its Activity is 28%.

Q: And the Activity [2]?
A: The Activity was “Non-Toxic”.

Q: And the Activity (MDA-MB-231 [3])?
A: The Activity was “inactive”.

Q: And the inhibition in vivo at 10 mg/kg (MDA-MB-468 [4])?
A: Its inhibition in vivo at 10 mg/kg is 58%.

Q: And the Activity (MDA-MB-231 [5])?
A: Its Activity is 29.2%.

Q: And the Activity (MDA-MB-231 [6])?
A: The Activity was 8.05%.

Q: And the inhibition (MDA-MB-231 [7])?
A: Its inhibition is “inactive”.

Q: And the Activity (MDA-MB-468 [8])?
A: The Activity was “inactive”.

Q: What about the inhibition (MDA-MB-468 [9]) of the same compound?
A: Its inhibition is “inactive”.

Q: What about the Activity (MDA-MB-468 [10]) of the same compound?
A: The Activity was “Active”.

Q: And the Activity (MDA-MB-468 [11])?
A: Its Activity is “Active”.

Q: What about the Activity (MDA-MB-468 [12]) of the same compound?
A: The Activity was 57.9%.

Q: And the selectivity ratio [13]?
A: The selectivity ratio was 26.2.

Q: What about the IC50 (MCF-10A) of the same compound?
A: The IC50 was 1050 nM.

Q: And the Activity [14]?
A: The Activity was “Non-Toxic”.

Q: And the Activity (MDA-MB-468 [15])?
A: The Activity was 12.5%.

Q: What about the Activity (MDA-MB-231 [16]) of the same compound?
A: The Activity was 34.5%.

Q: And the Activity (MDA-MB-231 [17])?
A: Its Activity is “Active”.

Q: And the Activity (MDA-MB-231 [18])?
A: Its Activity is 43.1%.

Q: And the inhibition (Homo sapiens)?
A: The inhibition was “inactive”.

Q: What about the inhibition in vivo at 10 mg/kg (MDA-MB-468 [19]) of the same compound?
A: The inhibition in vivo at 10 mg/kg was 44.8%.

Q: What about the Activity (MDA-MB-231 [20]) of the same compound?
A: The Activity was “Active”.

Q: What about the IC50 (HEK293) of the same compound?
A: The IC50 was 1960 nM.

Q: And the Activity (MDA-MB-468 [21])?
A: The Activity was 58.1%.

Q: And the Activity (MDA-MB-231 [22])?
A: The Activity was 23.8%.

Q: What about the Activity (MDA-MB-468 [23]) of the same compound?
A: Its Activity is 59.6%.

Q: And the Activity (MDA-MB-468 [24])?
A: The Activity was 25.9%.

Q: And the Activity (MDA-MB-231 [25])?
A: The Activity was “Active”.

Q: What about the Activity (MDA-MB-468 [26]) of the same compound?
A: Its Activity is “inactive”.

Q: And the inhibition at 0.2 µM (MDA-MB-231 [27])?
A: Its inhibition at 0.2 µM is 80%.

Q: And the Activity (MDA-MB-468 [28])?
A: The Activity was “Active”.

Q: And the Activity (MDA-MB-468 [29])?
A: The Activity was 29.7%.

Q: What about the Activity (MDA-MB-468 [30]) of the same compound?
A: The Activity was “Active”.

Q: And the Activity (MDA-MB-231 [31])?
A: The Activity was “Active”.

Q: And the Activity (MDA-MB-468 [32])?
A: Its Activity is 14.3%.

Q: And the IC50 (MDA-MB-231 [33])?
A: The IC50 was 78.3 nM.
